Assay results as given in patent publication US6627601B2, “Neuroprotective peptides and uses thereof” (Protarga, Inc., priority 1998, dated 2003).
Like-named read-outs stand apart in the source and are kept apart here.

Key:
[1] = tested on: rat brain hippocampal cells; assay: glutamate induced neurotoxicity in hippocampal neuron cultures; assay type: cell-based; details: 3 days of culture
Description: The effect of the neuroprotective peptides was tested on rat brain hippocampal cells. Rat brain hippocampi were isolated by dissection of 18 day old rat fetuses. […] The cultures were then incubated for 30 min at 37° C. after which glutamate was added at the concentrations indicated. Cells were counted after 3 days of culture; healthy cells and total cells were counted.

[2] = fura-2 calcium chelation assay in cells loaded with fura-2 and calcium; assay type: cell-based
Description: Any of the foregoing peptides can be tested for calcium binding by well known assays of calcium chelation (see, e.g. Cornell-Bell et al., Science 247:470-473, 1990; Cornell-Bell et al., Cell Calcium 12:185-204, 1991). For example, one preferred method employs the calcium sensitive dye fura-2 to measure the chelation of calcium by the isolated peptides. In such an assay, cells are loaded with fura-2 and calcium. […] An isolated peptide then is added to the cells and the diminution of fura-2 fluorescence is determined. Dose response experiments can be performed to determine the concentration at which the isolated peptide completely eliminates fura-2 fluorescence. For example, the isolated peptide of SEQ ID NO:4 completely eliminates fura-2 fluorescence at a concentration of 1 pg/ml in the cell culture medium.
Peptides, including variant peptides, can be tested for retention for any of the foregoing properties. For example, the peptides can be tested for in vitro properties initially to determine which of the variant peptides retain the ability to bind calcium ions and/or stimulate the expression of transcription factors. In vitro assays of calcium binding include contacting the peptide with an environment which contains calcium, such as a cell preloaded with calcium and a fluorescent calcium-sensitive dye, and determining the calcium binding of the peptide Peptides which retain one or more of these properties can then be used in in vivo assays of neuroprotection such as the Mongolian gerbil assay described below. Neuroprotective peptides or their variants which are conjugated to targeting compounds, labels, blood-brain barrier carriers and the like can be tested for retention of neuroprotective activity as well as for the activity of the conjugated compound (e.g., appropriate targeting, detectable labeling, ability to cross the blood-brain barrier, etc.).

[3] = tested on: NF-IL6 transcription factor; assay: EMSA of NF-IL6 in nuclear extracts of neuroblastoma cultures; assay type: cell-based, mouse
Description: (§1) It was determined that NMI 9236 can turn on specific genes related to neuronal growth in neuroblastoma tissue culture experiments.
(§2) The activation of specific transcription factors was assayed using an electrophoretic mobility shift assay (EMSA, for review see: Kerr, Meth. Enzymol 254:619-632, 1995). Nuclear extracts were prepared from stimulated neuroblastoma cell cultures (10^7 cells/sample) using classical nuclear extraction protocols (Dignam et al., Nucl. Acids Res. 11: 1475-1489, 1983; Prywes and Roeder, Cell 47: 777-784, 1986). A 0.5 pmol aliquot of a synthetic ^32P labeled oligomer duplex (with a sequence known to bind a specific transcription factor, see Table 2) was mixed with 3 μg of nuclear extract protein, and the mixture incubated at room temperature for 20 minutes. Subsequent electrophoresis under non-denaturing conditions through 4% polyacrylamide gels were used to separate and resolve the high MW protein/DNA complexes (transcription factor/DNA oligomer duplex) form low MW uncomplexed DNA oligomers. Autoradiography was used to visualize and quantify the complexes formed (see FIG. 6).
Identification of the observed band as NF-IL6 ([…]) was based on its electrophoretic migration, as well as antibody studies (data not shown).

neurons = details: compared with 68 kilodalton parent protein; Shashoua et al., 1992; cited from earlier work
[4] = tested on: AP-1 transcription factor; assay: EMSA of AP-1 in nuclear extracts of neuroblastoma cultures; assay type: cell-based, mouse
Description: as §1, §2
Using the electrophoretic mobility shift assay (EMSA) we tested for changes in concentration of transcription factors AP-1 and NF-IL6 in neuroblastoma nuclei as a function of stimulation by peptide NMI-9236. These two factors are well known to function in cell proliferation and differentiation, and to be activated by protein kinase-C. […] Identification of the two observed bands as Jun/Fos heterodimers and Jun/Jun homodimers was based on their electrophoretic migration, as well as antibody studies (data not shown).

[5] = tested on: gerbil model for ischemic stroke (5 minute bilateral carotid occlusion); assay: general locomotor activity (GLA) of gerbils after forebrain ischemia; assay type: in vivo, male Mongolian gerbil
Excerpt: The gerbil (male Mongolian) has been widely used as an experimental model for studies of ischemic stroke because the brain blood supply is controlled by only two common carotid arteries. This unusual feature occurs in gerbils because they have an incomplete circle of Willis (Chandler et al., J. Pharmacol. Methods 14:137-146, 1985; Finkelstein et al., Restor. Neurol. Neurosci. 1:387-394, 1990; Levine and Sohn, Arch. Pathol. 87:315-317, 1969; Kahn, Neurology 22:510-515, 1972). A five minute bilateral carotid occlusion results in neuronal cell death that is predominantly localized in the CA1 subfield of the hippocampus. The CA1 neurons degenerate and virtually disappear by 7-8 days after ischemia (Akira, Res. in Immunol. 143:734-736 1992; Crain et al., Neurosci. 27:387-402, 1988). In addition, the gerbil model has the advantage that within one day after ischemia the animals increase by 100% to 200% their general locomotor activity. This readily measurable change can persist for at least eight days in most of the experimental animals (Akira, 1992; Kuroiwa et al., Neurosci. Lett. 122:141-144, 1991; Ohno et al., Eur. J Pharmacol. 193:357-361, 1991; Phillis, Brain Res. Bull. 23:467-470, 1989).
Male Mongolian gerbils were anesthetized with a mixture of isoflurane and oxygen using an inhalation apparatus (Stoelting Instrument Co.). An incision was made in the ventral neck and the common carotid arteries were isolated and occluded completely for a period of 5 minutes using microaneurysm clips. Next, the clips were removed and the incision sutured. The anesthesia was continued until the end of the i.v. injection and infusion period. Mean arterial blood pressure was monitored by a polyethylene catheter implanted in the left or right femoral […] during surgery. […]
GLA measurements were carried out in half hour sessions using the Stoelting Electronic Activity monitor (Shashoua et al., J. Med. Chem. 27:654-659, 1984; Jacob et al., J. Med. Chem. 30:1573-1576, 1987). Each gerbil's activity level was first assessed on days 3 and 1 prior to the experimental ischemia procedure to obtain a base line GLA data, then on days 1, 2, 5, and 7 after the carotid artery occlusion to determine efficacy of drug treatment. […]
Male Mongolian gerbils were anesthetized with a mixture of halothane and oxygen in Phase 1 of surgery and a cannula (an Alzet No. 2002 pump) was implanted subcutaneously in the midscapular region beneath the skin of the animal. […] All surgical procedures were carried out with a strict control of the temperature of each animal; rectal temperatures were monitored and heat was supplied via a temperature regulated heating pad. […]

[6] = tested on: CA1 and CA3 hippocampal neurons; assay: histological cell density/survival of hippocampal neurons in gerbil brains after forebrain ischemia; assay type: in vivo, male Mongolian gerbil
Description: At the time of the sacrifice, each animal was deeply anesthetized and perfused transcardially with heparinized saline followed by paraformaldehyde (4%) in phosphate buffered saline. After fixation the brains were placed in 30% sucrose for 3 days, embedded in glutaraldehyde-gelatin, cut frozen into 30μ serial sections for morphometric analysis, and stained with cresyl violet. The cell densities per 1000 microns2 were determined by computer assisted counting of grey level images at 300× viewed through an Axioplan microscope. It was determined that a maximum of 62% of the hippocampal pyramidal cells survived the ischemia in the presence of NMI 9236 as compared to 4% survival for the control saline non-drug treated animals. All analyses were carried out blind.
At 8 days post surgery the gerbils were sacrificed, perfusion fixed with formalin, and each perfused brain was embedded in glutaraldehyde-gelatin. About 300 serial sections (40 microns thick) were cut from each frozen brain, and stained with cresyl violet. Cell morphometric analysis was carried out on one out of every 10 sections by computer-assisted cell density counting of grey level images viewed at 300× through an Axioplan microscope. Focused camera input (Sony CCD) from the microscope to the IBS video screen of the Zeiss IBAS/KONTRON Image analysis system was normalized and segmented before assessing cell number. The average cell density present per a 1000 micron^2 region of the CA1 and CA3 pyramidal cell layers for the left and right side of each were determined. The analysis was carried out blind.

[7] = NB2a mouse neuroblastoma cultures, 5-50 μg/ml
[8] = neuroblastoma cells treated for 20 hours
[9] = 1 mg/kg i.v. @ 1 hr post ischemia, day 8, n=3
[10] = 2 mM glutamate + 12 μg/ml peptide
[11] = 2 mM glutamate + 18 μg/ml peptide

Molecule: N[C@@H](CCC(=O)O)C(=O)O [glutamate, reference compound]
- % healthy ([1]; 1 mM glutamate alone): 51.5%
- Healthy cells ([1]; 1 mM glutamate alone): 35
- Total cells ([1]; 1 mM glutamate alone): 68
- % healthy ([1]; 2 mM glutamate alone): 40.8%
- Healthy cells ([1]; 2 mM glutamate alone): 62
- Total cells ([1]; 2 mM glutamate alone): 156

Molecule: D-F-A-I-D-A-P-E (DFAIDAPE) [SEQ ID NO:10]
- calcium chelation (in words) [2]: chelate calcium as tightly as the peptide of SEQ ID NO:3
- calcium chelation effectiveness relative to peptide of SEQ ID NO:4 ([2]; fura-2 fluorescence): about half as effective as the peptide of SEQ ID NO:4
- calcium chelation (in words) ([2]; listed as SEQ ID NO: 10): chelates calcium

Molecule: K-K-D-G-D-G-D-F-A-I-D-A-P-E (KKDGDGDFAIDAPE) [NMI 9236, 14 amino acid peptide]
- NF-IL6 activation, densitometric scan of the EMSA ([3]; 1 μg/ml, in comparison to control): 3-5 fold
- activation of NF-IL6 relative to control ([3]; 30 min): less pronounced
- level of NF-IL6 in the nuclei of the cells [3, 7]: increase
- activation of NF-IL6 relative to control [3, 8]: strong activation
- activation of NF-IL6 relative to control ([3]; serum-free medium, 20 hours): very strong activation
- promotion of growth and sprouting of neurons (neurons): at least the same extent as its 68 kilodalton parent protein
- AP-1 activation, densitometric scans of the EMSA [4]: 3-5 fold
- activation of AP-1 relative to control ([4]; 30 min): less pronounced
- level of AP-1 in the nuclei of the cells [4, 7]: increase
- activation of AP-1 relative to control [4, 8]: strong activation
- activation of AP-1 relative to control ([4]; serum-free medium, 20 hours): very strong activation
- concentration at which the peptide completely eliminates fura-2 fluorescence ([2]; in the cell culture medium): 1 pg/mL
- average GLA, % of the day 1 data ([5]; 1 mg/kg i.v. (femoral vein) at 1 hour after occlusion, saline control 225%): 85%
- effect on GLA (in words) ([5]; i.v. injection at 10 minutes after the ischemic event, n=3): blocked the development of enhanced GLA
- GLA, % of own GLA one day prior to surgery ([5]; icv delivery by Alzet pump, 1 milligram per ml, 7 days pre- and 7 days post-ischemia, n=4): 80%
- GLA value ([5]; subcutaneous (s.c.) injection at 1 hour after the surgery): 200%
- Cell Density CA1-Hippocampal field [6, 9]: 13.3 ± 0.82 number of cells/1000 microns^2
- Cell Density CA3-Hippocampal field [6, 9]: 8.82 ± 0.42 number of cells/1000 microns^2
- neuronal loss in CA1/CA3 versus sham operated controls (in words) ([6]; 1 mg/kg i.v. bolus at 1 hr post ischemia): essentially all the cells remained intact
- survival of L-CA1 neurons ([6]; icv into left lateral ventricle, 8 days post-ischemia, left side): 52±12%
- survival of R-CA1 neurons ([6]; icv into left lateral ventricle, 8 days post-ischemia, right (unprotected) side): 4±2%
- L-CA1 cell density as % of level of sham operated control brain ([6]; icv, 8 days post surgery): about 50%
- L-CA1 cell density count ([6]; icv, 8 days post surgery, saline controls 0.6): 6.2 per 1000 micron^2
- R-CA1 cell density ([6]; icv, 8 days post surgery, stated comparable to saline controls): ~0.6 per 1000 micron^2
- maximum survival of hippocampal pyramidal cells after ischemia ([6]; in the presence of NMI 9236, 4% for control saline animals): ≤ 62%
- % healthy [1, 10]: 92%
- Healthy cells [1, 10]: 138
- Total cells [1, 10]: 150
- % healthy [1, 11]: 81.6%
- Healthy cells [1, 11]: 80
- Total cells [1, 11]: 98
